The source of these data is patent publication US7893090B2, “N-aroyl cyclic amine derivatives as orexin receptor antagonists” (SmithKline Beecham Limited, priority 2001, dated 2011).

Test [1] is described as follows: Rat sleep/EEG studies after central administration. Format: in vivo. To be noted: central administration at the onset of the normal sleep period; at the expense of paradoxical sleep and slow wave sleep 2. From the text: Therefore antagonists of its receptor may be useful in the treatment of sleep disorders including insomnia.
For test [2] the following is noted: central administration, freely-feeding rats, 4 hour time period; cited from earlier work.

In the case of “orexin-A: ligand for the orexin-1 receptor, an agonist of the orexin receptors; 33-residue peptide, SEQ ID NO:1 (EPLPDCCRQKTCSCRLYELLHGAGNHAAGILTLNH; Homo sapien)”, the “arousal in rat sleep/EEG” value in test [1] is given as “dose-related increase in arousal”. The “increase in food intake over control rats receiving vehicle” value in test [2] is given as “approximately four-fold”.
